What all share (assay type): binding
The target of experiment [1] is PDZ-domain polypeptide (GST/PDZ fusion protein). Briefly: Apparent affinity (Kd) by titration of PL peptide in the G assay. The method, boiled down: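 A fixed concentration of GST/PDZ fusion protein, 5 ug/ml by default, was mixed in solution with increasing labeled PL peptide (e.g. 0.1 uM-1 mM). Reaction times ranged from 10 minutes to 2 days at 4-37° C. Complexes were separated from free peptide and detected via the label as in the G assay, apparent affinity coming from the saturating concentration.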

Experiment [2] concerns the target T1, PDZ protein (GST-PDZ fusion) (Homo sapiens, UniProt P78352).
T1 construct: made in house; host or cells: E. coli (DH5alpha, BL21 or JM109)
Briefly: G' assay (10 uM PL peptide), results of TABLE 7 and TABLE 12. In short, it runs like this:
(§1)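 Biotinylated PL peptides at 10 uM (vs 20 uM in G^0 assay) bound to GST-PDZ fusions; PDZ protein at 5 ug/ml unless another concentration listed. Bound peptide read as A450 nm, classified 0–5 (0 = A450 0; 5 = A450 >4 repeated).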

For experiment [3], the target named is T2, PDZ protein (GST-PDZ fusion) (Homo sapiens, UniProt Q12959).
T2 construct: made in house; host or cells: E. coli (DH5alpha, BL21 or JM109)
T2 sequence (Q12959 whole entry, the tested form may be a part): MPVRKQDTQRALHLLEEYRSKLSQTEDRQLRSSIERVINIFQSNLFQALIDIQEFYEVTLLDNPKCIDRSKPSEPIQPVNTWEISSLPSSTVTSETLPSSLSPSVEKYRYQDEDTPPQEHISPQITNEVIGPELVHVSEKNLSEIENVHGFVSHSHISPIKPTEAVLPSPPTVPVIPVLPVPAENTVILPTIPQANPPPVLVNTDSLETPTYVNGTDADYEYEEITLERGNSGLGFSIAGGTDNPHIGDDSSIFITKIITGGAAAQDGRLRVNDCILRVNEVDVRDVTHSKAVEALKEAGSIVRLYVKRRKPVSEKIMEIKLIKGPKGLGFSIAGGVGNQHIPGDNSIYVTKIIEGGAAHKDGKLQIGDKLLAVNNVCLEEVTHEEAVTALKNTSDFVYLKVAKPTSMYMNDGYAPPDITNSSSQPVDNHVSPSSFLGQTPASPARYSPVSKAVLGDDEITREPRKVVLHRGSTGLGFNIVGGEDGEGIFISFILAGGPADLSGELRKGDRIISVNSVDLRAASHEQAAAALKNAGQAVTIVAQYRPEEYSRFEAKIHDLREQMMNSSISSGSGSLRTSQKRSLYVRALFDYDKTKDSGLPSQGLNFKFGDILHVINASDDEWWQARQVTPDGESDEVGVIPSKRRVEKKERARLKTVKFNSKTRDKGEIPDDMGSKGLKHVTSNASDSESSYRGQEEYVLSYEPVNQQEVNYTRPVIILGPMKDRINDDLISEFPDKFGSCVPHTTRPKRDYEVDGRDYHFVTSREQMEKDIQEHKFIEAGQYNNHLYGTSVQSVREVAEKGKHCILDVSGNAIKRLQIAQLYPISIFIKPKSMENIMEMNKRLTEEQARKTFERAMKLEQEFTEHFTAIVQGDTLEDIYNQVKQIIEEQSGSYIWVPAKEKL
Described as above. The method, boiled down: as §1

For experiment [4], the target named is T3, PDZ protein (GST-PDZ fusion) (Homo sapiens, UniProt Q14160).
T3 construct: made in house; host or cells: E. coli (DH5alpha, BL21 or JM109)
The description is as above. In short, it runs like this: as §1

Experiment [5] deals with T4, PDZ protein (GST-PDZ fusion) (Homo sapiens, UniProt Q86UL8).
T4 construct: made in house; host or cells: E. coli (DH5alpha, BL21 or JM109)
T4 sequence (Q86UL8 whole entry, the tested form may be a part): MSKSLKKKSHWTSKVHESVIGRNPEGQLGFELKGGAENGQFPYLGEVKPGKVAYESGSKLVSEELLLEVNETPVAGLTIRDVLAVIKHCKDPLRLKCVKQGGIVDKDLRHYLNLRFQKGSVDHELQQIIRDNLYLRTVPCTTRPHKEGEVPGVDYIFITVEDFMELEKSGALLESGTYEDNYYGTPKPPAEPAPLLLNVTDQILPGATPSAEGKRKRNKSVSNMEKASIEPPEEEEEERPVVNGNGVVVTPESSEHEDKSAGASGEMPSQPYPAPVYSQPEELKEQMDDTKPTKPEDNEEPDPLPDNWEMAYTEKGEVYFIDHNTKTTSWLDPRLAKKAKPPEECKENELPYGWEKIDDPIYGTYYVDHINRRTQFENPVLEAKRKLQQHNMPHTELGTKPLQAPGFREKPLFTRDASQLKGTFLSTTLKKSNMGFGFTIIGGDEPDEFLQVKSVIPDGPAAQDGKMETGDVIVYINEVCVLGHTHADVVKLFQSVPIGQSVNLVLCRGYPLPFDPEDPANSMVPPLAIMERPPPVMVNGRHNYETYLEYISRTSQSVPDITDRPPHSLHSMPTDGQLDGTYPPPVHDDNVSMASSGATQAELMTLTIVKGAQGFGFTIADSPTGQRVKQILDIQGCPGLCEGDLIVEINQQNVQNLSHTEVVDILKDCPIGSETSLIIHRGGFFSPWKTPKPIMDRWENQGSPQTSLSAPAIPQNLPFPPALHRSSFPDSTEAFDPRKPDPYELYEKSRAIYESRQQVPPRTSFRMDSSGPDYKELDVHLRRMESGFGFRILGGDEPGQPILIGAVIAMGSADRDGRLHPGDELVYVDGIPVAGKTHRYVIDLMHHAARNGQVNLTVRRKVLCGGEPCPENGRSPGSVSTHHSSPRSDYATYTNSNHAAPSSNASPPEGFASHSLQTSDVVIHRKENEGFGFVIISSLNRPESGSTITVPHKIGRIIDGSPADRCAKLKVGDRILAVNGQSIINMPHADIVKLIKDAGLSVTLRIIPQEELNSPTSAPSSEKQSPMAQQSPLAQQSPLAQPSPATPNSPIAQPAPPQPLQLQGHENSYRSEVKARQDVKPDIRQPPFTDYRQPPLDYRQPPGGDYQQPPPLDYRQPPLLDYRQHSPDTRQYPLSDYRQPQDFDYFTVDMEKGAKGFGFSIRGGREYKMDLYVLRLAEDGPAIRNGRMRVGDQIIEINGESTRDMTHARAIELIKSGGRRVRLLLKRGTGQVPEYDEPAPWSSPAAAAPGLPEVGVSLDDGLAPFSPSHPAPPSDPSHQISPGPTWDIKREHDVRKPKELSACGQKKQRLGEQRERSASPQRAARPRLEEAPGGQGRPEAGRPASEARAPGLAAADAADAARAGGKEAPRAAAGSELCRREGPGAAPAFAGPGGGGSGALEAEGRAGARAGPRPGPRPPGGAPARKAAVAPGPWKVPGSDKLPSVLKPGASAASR
Described as above. The method, boiled down: as §1

Experiment [6] concerns the target T5, PDZ protein (GST-PDZ fusion) (Homo sapiens, UniProt O14907).
T5 construct: made in house; host or cells: E. coli (DH5alpha, BL21 or JM109)
T5 sequence (O14907 1-124): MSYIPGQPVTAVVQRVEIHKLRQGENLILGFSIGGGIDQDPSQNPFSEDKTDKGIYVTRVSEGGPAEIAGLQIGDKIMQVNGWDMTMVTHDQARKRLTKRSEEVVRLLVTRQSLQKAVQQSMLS
The description is as above. The settings on record: PDZ TIP1, PDZ Domain 1. The method, boiled down: as §1

For experiment [7], the target named is T6, PDZ protein (GST-PDZ fusion) (Homo sapiens, UniProt O15018).
T6 construct: made in house; host or cells: E. coli (DH5alpha, BL21 or JM109)
Described as above. In short, it runs like this:
as §1

For experiment [8], the target named is T7, PDZ protein (GST-PDZ fusion) (Homo sapiens, UniProt Q8NI35).
T7 construct: made in house; host or cells: E. coli (DH5alpha, BL21 or JM109)
T7 sequence (Q8NI35 whole entry, the tested form may be a part): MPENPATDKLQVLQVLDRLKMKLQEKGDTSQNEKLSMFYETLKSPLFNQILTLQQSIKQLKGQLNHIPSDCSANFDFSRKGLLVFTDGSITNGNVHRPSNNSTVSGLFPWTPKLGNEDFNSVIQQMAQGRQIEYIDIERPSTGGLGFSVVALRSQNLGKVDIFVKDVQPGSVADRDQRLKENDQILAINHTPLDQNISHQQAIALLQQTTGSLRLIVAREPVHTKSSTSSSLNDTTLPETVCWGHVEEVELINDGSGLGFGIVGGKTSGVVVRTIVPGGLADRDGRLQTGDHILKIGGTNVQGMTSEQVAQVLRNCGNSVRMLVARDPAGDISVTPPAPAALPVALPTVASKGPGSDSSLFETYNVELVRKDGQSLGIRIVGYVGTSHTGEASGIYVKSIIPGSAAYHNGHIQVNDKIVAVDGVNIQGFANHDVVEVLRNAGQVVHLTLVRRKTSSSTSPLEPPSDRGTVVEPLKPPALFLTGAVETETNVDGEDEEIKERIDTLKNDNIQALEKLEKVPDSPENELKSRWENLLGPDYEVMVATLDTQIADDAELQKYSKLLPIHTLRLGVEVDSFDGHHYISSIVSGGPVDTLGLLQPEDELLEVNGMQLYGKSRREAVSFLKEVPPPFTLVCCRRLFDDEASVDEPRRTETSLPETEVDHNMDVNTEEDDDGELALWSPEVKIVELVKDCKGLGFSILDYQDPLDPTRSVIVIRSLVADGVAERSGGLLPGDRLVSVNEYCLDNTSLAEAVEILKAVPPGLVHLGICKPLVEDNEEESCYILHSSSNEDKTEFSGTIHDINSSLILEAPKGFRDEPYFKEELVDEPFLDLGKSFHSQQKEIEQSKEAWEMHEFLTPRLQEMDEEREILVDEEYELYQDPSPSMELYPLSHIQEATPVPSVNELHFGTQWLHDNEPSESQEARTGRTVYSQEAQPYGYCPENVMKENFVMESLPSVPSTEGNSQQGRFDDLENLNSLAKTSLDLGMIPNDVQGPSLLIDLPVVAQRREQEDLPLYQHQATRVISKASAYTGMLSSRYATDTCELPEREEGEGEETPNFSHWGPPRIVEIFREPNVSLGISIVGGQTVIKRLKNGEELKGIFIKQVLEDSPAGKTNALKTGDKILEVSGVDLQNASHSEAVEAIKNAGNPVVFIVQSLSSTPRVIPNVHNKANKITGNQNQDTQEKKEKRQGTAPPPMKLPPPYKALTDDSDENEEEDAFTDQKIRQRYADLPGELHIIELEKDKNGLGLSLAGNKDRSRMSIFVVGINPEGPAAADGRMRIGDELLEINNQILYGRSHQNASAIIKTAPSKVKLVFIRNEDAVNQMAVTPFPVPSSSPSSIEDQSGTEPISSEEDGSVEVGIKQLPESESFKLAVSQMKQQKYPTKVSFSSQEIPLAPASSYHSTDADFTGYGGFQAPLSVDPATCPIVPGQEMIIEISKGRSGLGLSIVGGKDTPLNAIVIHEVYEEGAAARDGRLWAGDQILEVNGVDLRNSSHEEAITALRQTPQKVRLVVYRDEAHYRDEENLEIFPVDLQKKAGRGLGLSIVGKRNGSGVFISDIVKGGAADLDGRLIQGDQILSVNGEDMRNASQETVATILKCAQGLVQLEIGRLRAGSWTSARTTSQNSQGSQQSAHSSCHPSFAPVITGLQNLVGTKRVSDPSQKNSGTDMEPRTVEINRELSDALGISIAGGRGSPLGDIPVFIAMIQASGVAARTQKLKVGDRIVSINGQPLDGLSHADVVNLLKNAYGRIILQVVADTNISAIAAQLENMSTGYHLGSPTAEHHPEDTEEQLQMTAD
Described as above. The settings on record: PDZ INADL. The method, boiled down: as §1

Experiment [9] concerns the target T8, PDZ protein (GST-PDZ fusion) (Homo sapiens, UniProt Q13796).
T8 construct: made in house; host or cells: E. coli (DH5alpha, BL21 or JM109)
Described as above. The settings on record: PDZ hAPXL, PDZ Domain 1. The method, boiled down: as §1

Setting [10] is: PDZ atrophin-1 interacting Protein, PDZ Domain 1.
The mark [11] stands for this setting: PDZ Atrophin-1 Inter. Prot., PDZ Domain 5.
Setting [12] is: PDZ atrophin-1 interacting Protein, PDZ Domain 3.

Like-named read-outs stand apart in the source and are kept apart here. Ends that are not written are not given here. Peptide text beside a SMILES is read from it. * marks the point of attachment. Biotin = O=C1N[C@H]2[C@H](CS[C@H]2CCCCC(=O)*)N1

T1 sequence (P78352 whole entry, the tested form may be a part): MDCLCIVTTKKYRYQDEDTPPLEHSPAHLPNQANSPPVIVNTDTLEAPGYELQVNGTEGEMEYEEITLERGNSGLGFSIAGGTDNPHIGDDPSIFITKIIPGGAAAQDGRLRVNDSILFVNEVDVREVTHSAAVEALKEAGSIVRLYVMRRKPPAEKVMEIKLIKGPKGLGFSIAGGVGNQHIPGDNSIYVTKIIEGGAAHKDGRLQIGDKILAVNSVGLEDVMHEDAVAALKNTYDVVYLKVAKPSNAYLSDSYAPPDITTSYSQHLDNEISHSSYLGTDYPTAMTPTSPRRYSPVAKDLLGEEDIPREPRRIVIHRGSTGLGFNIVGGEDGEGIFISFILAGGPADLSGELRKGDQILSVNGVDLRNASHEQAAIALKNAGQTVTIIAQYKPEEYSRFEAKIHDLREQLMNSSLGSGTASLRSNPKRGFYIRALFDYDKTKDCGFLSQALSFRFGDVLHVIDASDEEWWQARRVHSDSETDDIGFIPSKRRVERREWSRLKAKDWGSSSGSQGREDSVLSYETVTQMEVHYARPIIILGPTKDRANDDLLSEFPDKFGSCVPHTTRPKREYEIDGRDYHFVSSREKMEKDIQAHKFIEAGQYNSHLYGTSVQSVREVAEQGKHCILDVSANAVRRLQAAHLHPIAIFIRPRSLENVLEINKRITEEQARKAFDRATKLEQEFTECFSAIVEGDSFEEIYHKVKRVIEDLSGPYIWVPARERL

Turning to `CC(C)C[C@H](NC(=O)[C@H](Cc1c[nH]c2ccccc12)NC(=O)[C@H](Cc1c[nH]cn1)NC(=O)[C@H](CCCNC(=N)N)NC(=O)[C@H](CC(C)C)NC(=O)[C@@H](NC(=O)[C@H](Cc1ccccc1)NC(=O)[C@H](CCC(N)=O)NC(=O)[C@H](CCCNC(=N)N)NC(=O)[C@@H](NC(=O)[C@H](CCC(=O)O)NC(=O)CNC(=O)[C@H](CCCNC(=N)N)NC(=O)[C@H](CC(=O)O)NC(=O)[C@@H](NC(=O)[C@H](CC(C)C)NC(=O)[C@H](CCC(=O)O)NC(=O)[C@H](CCCNC(=N)N)NC(=O)CCCC[C@@H]1SC[C@@H]2NC(=O)N[C@@H]21)C(C)C)C(C)C)[C@@H](C)O)C(=O)N[C@@H](CCCCN)C(=O)N[C@H](C(=O)O)C(C)C` [Dopamine transporter (Na+-dependent)] (Biotin-RELVDRGEVRQFTLRHWLKV-OH; C-terminus assumed), the Kd in experiment [1] (PDZ HEMBA 1003117, PDZ Domain 1, read-out: Peptide Optimal Conc (Kd by titration of the PL peptide)) was 0.3 µM.
On to `CC[C@H](C)[C@H](NC(=O)[C@H](CO)NC(=O)[C@@H](NC(=O)[C@H](Cc1ccccc1)NC(=O)[C@H](CO)NC(=O)CCCC[C@@H]1SC[C@@H]2NC(=O)N[C@@H]21)[C@@H](C)O)C(=O)N[C@@H](CC(C)C)C(=O)N[C@H](C(=O)N[C@@H](CS)C(=O)N[C@@H](Cc1c[nH]cn1)C(=O)N[C@@H](CCC(N)=O)C(=O)N[C@@H](CCCNC(=N)N)C(=O)N[C@@H](CCCNC(=N)N)C(=O)N[C@H](C(=O)N[C@@H](CCC(N)=O)C(=O)N[C@@H](CCCNC(=N)N)C(=O)N[C@@H](CCCCN)C(=O)N[C@@H](CCC(=O)O)C(=O)N[C@H](C(=O)N[C@H](C(=O)N[C@@H](C)C(=O)O)C(C)C)[C@@H](C)O)[C@@H](C)O)[C@@H](C)O` [GluR5-2 (rat)], for which the Classification in experiment [2] (PDZ PSD95, PDZ Domain 1) is recorded as 3 (A450 nm 2-3); in experiment [2] (PDZ PSD95, PDZ Domain 1, 2, 3) it was 5 (A450 nm of 4 more than 2× repeated); in [2] (PDZ PSD95, PDZ Domain 3), 5 (A450 nm of 4 more than 2× repeated); in [3] (PDZ DLG1, PDZ Domain 1), 2 (A450 nm 1-2); in [3] (PDZ DLG1, PDZ Domain 1, 2), 5 (A450 nm of 4 more than 2× repeated); in experiment [3] (PDZ DLG1, PDZ Domain 2), 2 (A450 nm 1-2). For the same compound, the Classification in [3] (PDZ DLG1, PDZ Domain 3) was 1 (A450 nm 0-1); in experiment [4] (PDZ KIAA0147, PDZ Domain 1) it was 2 (A450 nm 1-2); in [5] (setting [10]) it was 1 (A450 nm 0-1). The Kd in experiment [1] (PDZ BAI-1, PDZ Domain 2, titration of the PL peptide, read-out: Peptide Optimal Conc (Kd, dissociation constant)) was found to be 0.3 µM.
Turning to “PYSELNYETSHYPASPDSWV (Biotin-PYSELNYETSHYPASPDSWV) [catenin - delta 2]”, the Classification is on record as 3 (A450 nm 2-3) in [6]; 2 (A450 nm 1-2) in [7] (PDZ AIPC, PDZ Domain 1); 1 (A450 nm 0-1) in experiment [2] (PDZ PSD95, PDZ Domain 1); 2 (A450 nm 1-2) in experiment [2] (PDZ PSD95, PDZ Domain 1, 2, 3); 1 (A450 nm 0-1) in [3] (PDZ DLG1, PDZ Domain 1); 3 (A450 nm 2-3) in experiment [3] (PDZ DLG1, PDZ Domain 1, 2). For the same compound, the Classification was 2 (A450 nm 1-2) in experiment [3] (PDZ DLG1, PDZ Domain 2); 3 (A450 nm 2-3) in experiment [4] (PDZ KIAA0147, PDZ Domain 2); 1 (A450 nm 0-1) in experiment [4] (PDZ KIAA0147, PDZ Domain 4); 5 (A450 nm of 4 more than 2× repeated) in [5] (setting [11]); 1 (A450 nm 0-1) in experiment [5] (setting [12]); 1 (A450 nm 0-1) in [8] (PDZ Domain 5). Also, the Classification in experiment [8] (PDZ Domain 8) is 2 (A450 nm 1-2).
In the case of `CC[C@H](C)[C@H](NC(=O)[C@H](Cc1ccc(O)cc1)NC(=O)[C@H](CC(C)C)NC(=O)[C@H](CCC(N)=O)NC(=O)[C@H](Cc1c[nH]cn1)NC(=O)[C@H](CO)NC(=O)[C@H](C)NC(=O)[C@H](CC(C)C)NC(=O)[C@@H](NC(=O)[C@H](CC(=O)O)NC(=O)[C@H](CCSC)NC(=O)[C@H](Cc1ccccc1)NC(=O)[C@@H]1CCCN1C(=O)[C@H](CCCNC(=N)N)NC(=O)[C@@H](NC(=O)[C@H](CC(C)C)NC(=O)[C@H](CC(N)=O)NC(=O)[C@H](CC(=O)O)NC(=O)[C@@H](NC(=O)[C@H](CO)NC(=O)CCCC[C@@H]1SC[C@@H]2NC(=O)N[C@@H]21)[C@@H](C)O)C(C)C)[C@@H](C)O)C(=O)O` [presenilin-2] (Biotin-STDNLVRPFMDTLASHQLYI-OH; C-terminus assumed), the Classification in experiment [7] (PDZ AIPC, PDZ Domain 1) is listed as 1 (A450 nm 0-1); in experiment [7] (PDZ AIPC, PDZ Domain 4), 1 (A450 nm 0-1); in experiment [7] (PDZ KIAA0300, PDZ Domain 1) it was 1 (A450 nm 0-1); in experiment [7] (PDZ KIAA0300, PDZ Domain 2), 1 (A450 nm 0-1); in experiment [5] (setting [11]), 1 (A450 nm 0-1); in experiment [8] (PDZ Domain 3), 1 (A450 nm 0-1). The Kd in [1] (PDZ HEMBA 1003117, PDZ Domain 1, titration of the PL peptide, read-out: Peptide Optimal Conc (Kd, dissociation constant)) came to 4 µM.
In the case of `CC(C)C[C@H](NC(=O)[C@H](CC(C)C)NC(=O)[C@@H](NC(=O)[C@H](CC(=O)O)NC(=O)CCCC[C@@H]1SC[C@@H]2NC(=O)N[C@@H]21)[C@@H](C)O)C(=O)N[C@@H](CC(C)C)C(=O)N[C@H](C(=O)N[C@@H](CCC(=O)O)C(=O)N[C@@H](CC(N)=O)C(=O)N[C@@H](CCC(=O)O)C(=O)NCC(=O)N[C@@H](CC(=O)O)C(=O)N[C@@H](CCCCN)C(=O)N[C@H](C(=O)N[C@@H](CCC(=O)O)C(=O)N[C@@H](CCC(=O)O)C(=O)N[C@@H](CCC(N)=O)C(=O)N[C@H](C(=O)N[C@@H](CO)C(=O)N[C@@H](Cc1ccc(O)cc1)C(=O)N[C@H](C(=O)O)C(C)C)C(C)C)[C@@H](C)O)[C@@H](C)O` [5H2B_HUMAN] (Biotin-DTLLLTENEGDKTEEQVSYV-OH; C-terminus assumed), the Kd in experiment [1] (PDZ BAI-1, PDZ Domain 3, read-out: Peptide Optimal Conc (Kd by titration of the PL peptide)) was found to be 2 µM.
Turning to “ELLQFCRTPNPALKNGQYWV (Biotin-ELLQFCRTPNPALKNGQYWV)”, the Classification in experiment [6] was 1 (A450 nm 0-1); in experiment [7] (PDZ AIPC, PDZ Domain 1), 5 (A450 nm of 4 more than 2× repeated); in [7] (PDZ KIAA0300, PDZ Domain 1), 2 (A450 nm 1-2); in experiment [9], 3 (A450 nm 2-3); in experiment [5] (setting [11]), 2 (A450 nm 1-2); in experiment [5] (setting [10]), 1 (A450 nm 0-1). The Classification was 2 (A450 nm 1-2) in [5] (setting [12]), 3 (A450 nm 2-3) in experiment [8] (PDZ Domain 3), 5 (A450 nm of 4 more than 2× repeated) in experiment [8] (PDZ Domain 5) and 3 (A450 nm 2-3) in experiment [8] (PDZ Domain 8).
`CC(C)C[C@H](NC(=O)[C@H](CCCNC(=N)N)NC(=O)CNC(=O)CNC(=O)[C@H](CCCNC(=N)N)NC(=O)[C@H](C)NC(=O)[C@@H]1CCCN1C(=O)[C@H](CCCNC(=N)N)NC(=O)CNC(=O)CNC(=O)[C@@H](NC(=O)[C@H](C)NC(=O)CCCC[C@@H]1SC[C@@H]2NC(=O)N[C@@H]21)C(C)C)C(=O)N[C@@H](CCC(N)=O)C(=O)NCC(=O)N[C@@H](CCCNC(=N)N)C(=O)N[C@@H](CCCNC(=N)N)C(=O)N[C@@H](CCC(N)=O)C(=O)N[C@H](C(=O)N[C@@H](CCC(N)=O)C(=O)N[C@H](C(=O)O)C(C)C)[C@@H](C)O` [HPV E6 58 (modified)] (Biotin-AVGGRPARGGRLQGRRQTQV-OH; C-terminus assumed): the Classification in [6] is 4 (A450 nm 3-4); in [2] (PDZ PSD95, PDZ Domain 1), 5 (A450 nm of 4 more than 2× repeated); in experiment [2] (PDZ PSD95, PDZ Domain 1, 2, 3), 5 (A450 nm of 4 more than 2× repeated); in experiment [2] (PDZ PSD95, PDZ Domain 3), 5 (A450 nm of 4 more than 2× repeated); in experiment [3] (PDZ DLG1, PDZ Domain 1), 5 (A450 nm of 4 more than 2× repeated); in experiment [3] (PDZ DLG1, PDZ Domain 2), 5 (A450 nm of 4 more than 2× repeated). For the same compound, the Classification was 2 (A450 nm 1-2) in [4] (PDZ KIAA0147, PDZ Domain 1); 5 (A450 nm of 4 more than 2× repeated) in experiment [5] (PDZ atrophin-1 interacting Protein (Atrophin-1 Inter. Prot.), PDZ Domain 1); 4 (A450 nm 3-4) in [8] (PDZ Domain 8).

These data come from patent US20050282743A1, “Molecular interactions in cells” (Arbor Vita Corporation, priority 2001, published 2005).
